In US10351546B2, “Pyridin-3-yl acetic acid derivatives as inhibitors of human immunodeficiency virus replication” (priority 2015, dated 2019):
Like-named read-outs stand apart in the source and are kept apart here.

System: NL-RLuc virus
Test: Inhibition of HIV replication (NL-RLuc luciferase reporter virus in MT-2 cells)
Assay type: cell-based
Settings: Human immunodeficiency virus 1, MT2, 120 h
How it was run: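 The read-out is Renilla luciferase expressed by replication-competent NL-RLuc (nef partly replaced), measured 5 days after infection of MT-2 cells grown with compound dilutions in 10% FBS RPMI. Median effect equation gives EC50 from ≥2 runs; A ≤100 nM, B 100 nM–1 uM, C >1 uM.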

## Cc1cc(F)ccc1CN1CCc2cc(-c3c(COC4CCOCC4)nc(C)c([C@H](OC(C)(C)C)C(=O)O)c3N3CCC(C)(C)CC3)ccc2C1 [Example 155, (S)-2-(tert-Butoxy)-2-(4-(4,4-dimethylpiperidin-1-yl)-5-(2-(4-fluoro-2-methylbenzyl)-1,2,3,4-tetrahydroisoquinolin-6-yl)-2-methyl-6-(((tetrahydro-2H-pyran-4-yl)oxy)methyl)pyridin-3-yl)acetic acid]
read-out: Activity
  EC50: < 0.1 µM
read-out: EC50 μM
  EC50: 0.001 µM

## Cc1nc(COC(C)C)c(-c2ccc(OCCc3ccc(F)cc3)cc2)c(N2CCC(C)(C)CC2)c1[C@H](OC(C)(C)C)C(=O)O [Example 9, (S)-2-(tert-Butoxy)-2-(4-(4,4-dimethylpiperidin-1-yl)-5-(4-(4-fluorophenethoxy)phenyl)-6-(isopropoxymethyl)-2-methylpyridin-3-yl)acetic acid]
read-out: Activity
  EC50: < 0.1 µM

## Cc1nc(C(=O)N(C)CC2CCCCC2)c(-c2ccc(OCCc3ccc(F)cc3)cc2)c(N2CCC(C)(C)CC2)c1[C@H](OC(C)(C)C)C(=O)O [Example 42, (S)-2-(tert-Butoxy)-2-(6-((cyclohexylmethyl)(methyl)carbamoyl)-4-(4,4-dimethylpiperidin-1-yl)-5-(4-(4-fluorophenethoxy)phenyl)-2-methylpyridin-3-yl)acetic acid]
read-out: Activity
  EC50: < 0.1 µM
read-out: EC50 μM
  EC50: 0.004 µM

## Cc1nc(C#N)c(-c2ccc(OCCc3ccc(F)cc3)cc2)c(N2CCC(C)(C)CC2)c1[C@H](OC(C)(C)C)C(=O)O [Example 162, (S)-2-(tert-Butoxy)-2-(6-cyano-4-(4,4-dimethylpiperidin-1-yl)-5-(4-(4-fluorophenethoxy)phenyl)-2-methylpyridin-3-yl)acetic acid]
read-out: Activity
  EC50: < 0.1 µM
read-out: EC50 μM
  EC50: 0.008 µM

## Cc1nc(COC2CCCC2)c(-c2ccc(OCCc3ccc(F)cc3)cc2)c(N2CCC(C)(C)CC2)c1[C@H](OC(C)(C)C)C(=O)O [Example 11, (S)-2-(tert-Butoxy)-2-(6-((cyclopentyloxy)methyl)-4-(4,4-dimethylpiperidin-1-yl)-5-(4-(4-fluorophenethoxy)phenyl)-2-methylpyridin-3-yl)acetic acid]
read-out: Activity
  EC50: < 0.1 µM

## Cc1nc(C(F)F)c(-c2ccc(OCCc3ccc(F)cc3)cc2)c(N2CCC(C)(C)CC2)c1[C@H](OC(C)(C)C)C(=O)O [Example 4, (S)-2-(tert-Butoxy)-2-(6-(difluoromethyl)-4-(4,4-dimethylpiperidin-1-yl)-5-(4-(4-fluorophenethoxy)phenyl)-2-methylpyridin-3-yl)acetic acid]
read-out: Activity
  EC50: < 0.1 µM

## CCOCc1nc(C)c([C@H](OC(C)(C)C)C(=O)O)c(N2CCC(C)(C)CC2)c1-c1ccc(OCCc2ccc(F)cc2)cc1 [Example 8, (S)-2-(tert-Butoxy)-2-(4-(4,4-dimethylpiperidin-1-yl)-6-(ethoxymethyl)-5-(4-(4-fluorophenethoxy)phenyl)-2-methylpyridin-3-yl)acetic acid]
read-out: Activity
  EC50: < 0.1 µM

## Cc1cc(F)ccc1CN1CCc2cc(-c3c(CNCc4cccnc4)nc(C)c([C@H](OC(C)(C)C)C(=O)O)c3N3CCC(C)(C)CC3)ccc2C1 [Example 126, (S)-2-(tert-Butoxy)-2-(4-(4,4-dimethylpiperidin-1-yl)-5-(2-(4-fluoro-2-methylbenzyl)-1,2,3,4-tetrahydroisoquinolin-6-yl)-2-methyl-6-(((pyridin-3-ylmethyl)amino)methyl)pyridin-3-yl)acetic acid]
read-out: Activity
  EC50: < 0.1 µM

## Cc1nc(N)c(-c2ccc3c(c2)CCN(c2ncnc4c2cnn4C)C3)c(N2CCC(C)(C)CC2)c1[C@H](OC(C)(C)C)C(=O)O [Example 149, (S)-2-(6-Amino-4-(4,4-dimethylpiperidin-1-yl)-2-methyl-5-(2-(1-methyl-1H-pyrazolo[3,4-d]pyrimidin-4-yl)-1,2,3,4-tetrahydroisoquinolin-6-yl)pyridin-3-yl)-2-(tert-butoxy)acetic acid]
read-out: Activity
  EC50: < 0.1 µM

## Cc1cccc(Cl)c1CN1CCc2cc(-c3c(CN4CCCC4)nc(C)c([C@H](OC(C)(C)C)C(=O)O)c3N3CCC(C)(C)CC3)ccc2C1 [Example 176, (S)-2-(tert-Butoxy)-2-(5-(2-(2-chloro-6-methylbenzyl)-1,2,3,4-tetrahydroisoquinolin-6-yl)-4-(4,4-dimethylpiperidin-1-yl)-2-methyl-6-(pyrrolidin-1-ylmethyl)pyridin-3-yl)acetic acid]
read-out: Activity
  EC50: < 0.1 µM

## Cc1nc(COC2CCOCC2)c(-c2ccc(OCCc3ccc(F)cc3)cc2)c(N2CCC(C)(C)CC2)c1[C@H](OC(C)(C)C)C(=O)O [Example 12, (S)-2-(tert-Butoxy)-2-(4-(4,4-dimethylpiperidin-1-yl)-5-(4-(4-fluorophenethoxy)phenyl)-2-methyl-6-(((tetrahydro-2H-pyran-4-yl)oxy)methyl)pyridin-3-yl)acetic acid]
read-out: Activity
  EC50: < 0.1 µM

## CNCc1nc(C)c([C@H](OC(C)(C)C)C(=O)O)c(N2CCC(C)(C)CC2)c1-c1ccc2c(c1)CCN(Cc1ccc(F)cc1C)C2 [Example 114, (S)-2-(tert-Butoxy)-2-(4-(4,4-dimethylpiperidin-1-yl)-5-(2-(4-fluoro-2-methylbenzyl)-1,2,3,4-tetrahydroisoquinolin-6-yl)-2-methyl-6-((methylamino)methyl)pyridin-3-yl)acetic acid]
read-out: Activity
  EC50: < 0.1 µM

## Cc1cc(C)n(COCc2nc(C)c([C@H](OC(C)(C)C)C(=O)O)c(N3CCC(C)(C)CC3)c2-c2ccc(OCCc3ccc(F)cc3)cc2)n1 [Example 25, (S)-2-(tert-Butoxy)-2-(6-(((3,5-dimethyl-1H-pyrazol-1-yl)methoxy)methyl)-4-(4,4-dimethylpiperidin-1-yl)-5-(4-(4-fluorophenethoxy)phenyl)-2-methylpyridin-3-yl)acetic acid]
read-out: Activity
  EC50: < 0.1 µM

## Cc1nc(CNC23CC(C2)C3)c(-c2ccc(OCCc3ccc(F)cc3)cc2)c(N2CCC(C)(C)CC2)c1[C@H](OC(C)(C)C)C(=O)O [Example 174, (S)-2-(6-((Bicyclo[1.1.1]pentan-1-ylamino)methyl)-4-(4,4-dimethylpiperidin-1-yl)-5-(4-(4-fluorophenethoxy)phenyl)-2-methylpyridin-3-yl)-2-(tert-butoxy)acetic acid]
read-out: Activity
  EC50: < 0.1 µM

## Cc1nc(COCC2CCC2)c(-c2ccc(OCCc3ccc(F)cc3)cc2)c(N2CCC(C)(C)CC2)c1[C@H](OC(C)(C)C)C(=O)O [Example 29, (S)-2-(tert-Butoxy)-2-(6-((cyclobutylmethoxy)methyl)-4-(4,4-dimethylpiperidin-1-yl)-5-(4-(4-fluorophenethoxy)phenyl)-2-methylpyridin-3-yl)acetic acid]
read-out: Activity
  EC50: < 0.1 µM

## CC(=O)N(C)Cc1nc(C)c([C@H](OC(C)(C)C)C(=O)O)c(N2CCC(C)(C)CC2)c1-c1ccc2c(c1)CCN(Cc1ccc(F)cc1C)C2 [Example 143, (S)-2-(tert-Butoxy)-2-(4-(4,4-dimethylpiperidin-1-yl)-5-(2-(4-fluoro-2-methylbenzyl)-1,2,3,4-tetrahydroisoquinolin-6-yl)-2-methyl-6-((N-methylacetamido)methyl)pyridin-3-yl)acetic acid]
read-out: Activity
  EC50: < 0.1 µM

## COCCN(CCOC)Cc1nc(C)c([C@H](OC(C)(C)C)C(=O)O)c(N2CCC(C)(C)CC2)c1-c1ccc(OCCc2ccc(F)cc2)cc1 [Example 93, (S)-2-(6-((Bis(2-methoxyethyl)amino)methyl)-4-(4,4-dimethylpiperidin-1-yl)-5-(4-(4-fluorophenethoxy)phenyl)-2-methylpyridin-3-yl)-2-(tert-butoxy)acetic acid]
read-out: Activity
  EC50: < 0.1 µM

## CCOCCOCc1nc(C)c([C@H](OC(C)(C)C)C(=O)O)c(N2CCC(C)(C)CC2)c1Br [Example 37, (S)-2-(5-bromo-4-(4,4-dimethylpiperidin-1-yl)-6-((2-ethoxyethoxy)methyl)-2-methylpyridin-3-yl)-2-(tert-butoxy)acetic acid]
read-out: Activity
  EC50: < 0.1 µM

## CNCc1nc(C)c([C@H](OC(C)(C)C)C(=O)O)c(N2CCC(C)(C)CC2)c1-c1ccc(OCCc2ccc(F)cc2)cc1 [Example 64, (S)-2-(tert-Butoxy)-2-(4-(4,4-dimethylpiperidin-1-yl)-5-(4-(4-fluorophenethoxy)phenyl)-2-methyl-6-((methylamino)methyl)pyridin-3-yl)acetic acid]
read-out: Activity
  EC50: < 0.1 µM

## Cc1nc(Cn2ncnc2C)c(-c2ccc(OCCc3ccc(F)cc3)cc2)c(N2CCC(C)(C)CC2)c1[C@H](OC(C)(C)C)C(=O)O [Example 32, (S)-2-(tert-butoxy)-2-(4-(4,4-dimethylpiperidin-1-yl)-5-(4-(4-fluorophenethoxy)phenyl)-2-methyl-6-((5-methyl-1H-1,2,4-triazol-1-yl)methyl)pyridin-3-yl)acetic acid]
read-out: Activity
  EC50: < 0.1 µM

## CCN(CC)CCOCc1nc(C)c([C@H](OC(C)(C)C)C(=O)O)c(N2CCC(C)(C)CC2)c1-c1ccc(OCCc2ccc(F)cc2)cc1 [Example 23, (S)-2-(tert-Butoxy)-2-(6-((2-(diethylamino)ethoxy)methyl)-4-(4,4-dimethylpiperidin-1-yl)-5-(4-(4-fluorophenethoxy)phenyl)-2-methylpyridin-3-yl)acetic acid]
read-out: Activity
  EC50: < 0.1 µM

## Cc1ncc(-c2ccc(OCCc3ccc(F)cc3)cc2)c(N2CCC(C)(C)CC2)c1[C@H](OC(C)(C)C)C(=O)O [Example 63, (S)-2-(tert-Butoxy)-2-(4-(4,4-dimethylpiperidin-1-yl)-5-(4-(4-fluorophenethoxy)phenyl)-2-methylpyridin-3-yl)acetic acid]
read-out: Activity
  EC50: < 0.1 µM

## Cc1cc(F)ccc1CN1CCc2cc(-c3c(CN4CCCCC4)nc(C)c([C@H](OC(C)(C)C)C(=O)O)c3N3CCC(C)(C)CC3)ccc2C1 [Example 119, (S)-2-(tert-Butoxy)-2-(4-(4,4-dimethylpiperidin-1-yl)-5-(2-(4-fluoro-2-methylbenzyl)-1,2,3,4-tetrahydroisoquinolin-6-yl)-2-methyl-6-(piperidin-1-ylmethyl)pyridin-3-yl)acetic acid]
read-out: Activity
  EC50: < 0.1 µM

## Cc1nc(CNCC2COC2)c(-c2ccc(OCCc3ccc(F)cc3)cc2)c(N2CCC(C)(C)CC2)c1[C@H](OC(C)(C)C)C(=O)O [Example 76, (S)-2-(tert-Butoxy)-2-(4-(4,4-dimethylpiperidin-1-yl)-5-(4-(4-fluorophenethoxy)phenyl)-2-methyl-6-(((oxetan-3-ylmethyl)amino)methyl)pyridin-3-yl)acetic acid]
read-out: Activity
  EC50: < 0.1 µM
